Assay results as given in ChEMBL document CHEMBL5252512, “Recent Progress in the Development of HIV-1 Protease Inhibitors for the Treatment of HIV/AIDS” (J Med Chem, 2016).

System: Human immunodeficiency virus 1
Assay: Antiviral activity against HIV1 T13572 infected in human MT4 cells expressing LTR and EGFP assessed as inhibition of virus-induced cytopathic effect by fluorescence microscopic analysis
Type: functional, organism-based
Conditions: Human immunodeficiency virus 1, T13572, MT4

Structure (SMILES) | EC50 [µM]
Cc1cccc(C)c1OCC(=O)N[C@@H](Cc1ccccc1)[C@@H](O)C[C@H](Cc1ccccc1)NC(=O)[C@H](C(C)C)N1CCCNC1=O [LOPINAVIR] | 0.511

System: Human immunodeficiency virus 1
Assay: Antiviral activity against darunavir-resistant HIV1 10P infected in phytohemagglutinin-activated human PBMC cells assessed as inhibition of virus-induced cytopathic effect measured after 7 days by MTT assay
Type: functional, organism-based
Conditions: Human immunodeficiency virus 1, 10P, 168 h

Structure (SMILES) | EC50 [µM]
Cc1cccc(C)c1OCC(=O)N[C@@H](Cc1ccccc1)[C@@H](O)C[C@H](Cc1ccccc1)NC(=O)[C@H](C(C)C)N1CCCNC1=O [LOPINAVIR] | > 1

System: Human immunodeficiency virus 1
Assay: Antiviral activity against HIV1 T21055 infected in human MT4 cells expressing LTR and EGFP assessed as inhibition of virus-induced cytopathic effect by fluorescence microscopic analysis
Type: functional, organism-based
Conditions: Human immunodeficiency virus 1, T21055, MT4

Structure (SMILES) | EC50 [µM]
Cc1cccc(C)c1OCC(=O)N[C@@H](Cc1ccccc1)[C@@H](O)C[C@H](Cc1ccccc1)NC(=O)[C@H](C(C)C)N1CCCNC1=O [LOPINAVIR] | 0.426

System: Human immunodeficiency virus 1
Assay: Antiviral activity against darunavir-resistant HIV1 20P infected in phytohemagglutinin-activated human PBMC cells assessed as inhibition of virus-induced cytopathic effect measured after 7 days by MTT assay
Type: functional, organism-based
Conditions: Human immunodeficiency virus 1, 20P, 168 h

Structure (SMILES) | EC50 [µM]
Cc1cccc(C)c1OCC(=O)N[C@@H](Cc1ccccc1)[C@@H](O)C[C@H](Cc1ccccc1)NC(=O)[C@H](C(C)C)N1CCCNC1=O [LOPINAVIR] | > 1

System: Human immunodeficiency virus 1
Assay: Antiviral activity against multidrug-resistant HIV1-B infected in phytohemagglutinin-activated human PBMC cells assessed as inhibition of virus-induced cytopathic effect measured after 7 days by MTT assay
Type: functional, organism-based
Conditions: Human immunodeficiency virus 1, B, 168 h

Structure (SMILES) | EC50 [µM]
Cc1cccc(C)c1OCC(=O)N[C@@H](Cc1ccccc1)[C@@H](O)C[C@H](Cc1ccccc1)NC(=O)[C@H](C(C)C)N1CCCNC1=O [LOPINAVIR] | > 0.3

System: Human immunodeficiency virus 1
Assay: Antiviral activity against HIV1 T13632 infected in human MT4 cells expressing LTR and EGFP assessed as inhibition of virus-induced cytopathic effect by fluorescence microscopic analysis
Type: functional, organism-based
Conditions: Human immunodeficiency virus 1, T13632, MT4

Structure (SMILES) | EC50 [µM]
Cc1cccc(C)c1OCC(=O)N[C@@H](Cc1ccccc1)[C@@H](O)C[C@H](Cc1ccccc1)NC(=O)[C@H](C(C)C)N1CCCNC1=O [LOPINAVIR] | 1.6

System: Human immunodeficiency virus 1
Assay: Antiviral activity against HIV1 T21217 infected in human MT4 cells expressing LTR and EGFP assessed as inhibition of virus-induced cytopathic effect by fluorescence microscopic analysis
Type: functional, organism-based
Conditions: Human immunodeficiency virus 1, T21217, MT4

Structure (SMILES) | EC50 [µM]
Cc1cccc(C)c1OCC(=O)N[C@@H](Cc1ccccc1)[C@@H](O)C[C@H](Cc1ccccc1)NC(=O)[C@H](C(C)C)N1CCCNC1=O [LOPINAVIR] | 0.198

System: Human immunodeficiency virus 1
Assay: Antiviral activity against HIV1 T13717 infected in human MT4 cells expressing LTR and EGFP assessed as inhibition of virus-induced cytopathic effect by fluorescence microscopic analysis
Type: functional, organism-based
Conditions: Human immunodeficiency virus 1, T13717, MT4

Structure (SMILES) | EC50 [µM]
Cc1cccc(C)c1OCC(=O)N[C@@H](Cc1ccccc1)[C@@H](O)C[C@H](Cc1ccccc1)NC(=O)[C@H](C(C)C)N1CCCNC1=O [LOPINAVIR] | 1.9

System: Human immunodeficiency virus 1
Assay: Antiviral activity against wild type HIV1 r13205 infected in human MT4 cells expressing LTR and EGFP assessed as inhibition of virus-induced cytopathic effect by fluorescence microscopic analysis
Type: functional, organism-based
Conditions: Human immunodeficiency virus 1, r13205, MT4

Structure (SMILES) | EC50 [µM]
Cc1cccc(C)c1OCC(=O)N[C@@H](Cc1ccccc1)[C@@H](O)C[C@H](Cc1ccccc1)NC(=O)[C@H](C(C)C)N1CCCNC1=O [LOPINAVIR] | 0.028

System: Human immunodeficiency virus 1
Assay: Antiviral activity against wild type HIV1 ERS104pre infected in human PBMC cells assessed as inhibition of virus-induced cytopathic effect measured after 7 days by MTT assay
Type: functional, organism-based
Conditions: Human immunodeficiency virus 1, ERS104pre, 168 h

Structure (SMILES) | EC50 [µM]
Cc1cccc(C)c1OCC(=O)N[C@@H](Cc1ccccc1)[C@@H](O)C[C@H](Cc1ccccc1)NC(=O)[C@H](C(C)C)N1CCCNC1=O [LOPINAVIR] | 0.007

System: Human immunodeficiency virus 1
Assay: Antiviral activity against multidrug-resistant HIV1-G infected in phytohemagglutinin-activated human PBMC cells assessed as inhibition of virus-induced cytopathic effect measured after 7 days by MTT assay
Type: functional, organism-based
Conditions: Human immunodeficiency virus 1, G, 168 h

Structure (SMILES) | EC50 [µM]
Cc1cccc(C)c1OCC(=O)N[C@@H](Cc1ccccc1)[C@@H](O)C[C@H](Cc1ccccc1)NC(=O)[C@H](C(C)C)N1CCCNC1=O [LOPINAVIR] | > 0.16

System: Human immunodeficiency virus 1
Assay: Antiviral activity against multidrug-resistant HIV1-C infected in phytohemagglutinin-activated human PBMC cells assessed as inhibition of virus-induced cytopathic effect measured after 7 days by MTT assay
Type: functional, organism-based
Conditions: Human immunodeficiency virus 1, C, 168 h

Structure (SMILES) | EC50 [µM]
Cc1cccc(C)c1OCC(=O)N[C@@H](Cc1ccccc1)[C@@H](O)C[C@H](Cc1ccccc1)NC(=O)[C@H](C(C)C)N1CCCNC1=O [LOPINAVIR] | > 0.436

System: Human immunodeficiency virus 1
Assay: Antiviral activity against multidrug-resistant HIV1-JSL infected in phytohemagglutinin-activated human PBMC cells assessed as inhibition of virus-induced cytopathic effect measured after 7 days by MTT assay
Type: functional, organism-based
Conditions: Human immunodeficiency virus 1, JSL, 168 h

Structure (SMILES) | EC50 [µM]
Cc1cccc(C)c1OCC(=O)N[C@@H](Cc1ccccc1)[C@@H](O)C[C@H](Cc1ccccc1)NC(=O)[C@H](C(C)C)N1CCCNC1=O [LOPINAVIR] | > 0.7

System: Human immunodeficiency virus 1
Assay: Antiviral activity against HIV1 T13436 infected in human MT4 cells expressing LTR and EGFP assessed as inhibition of virus-induced cytopathic effect by fluorescence microscopic analysis
Type: functional, organism-based
Conditions: Human immunodeficiency virus 1, T13436, MT4

Structure (SMILES) | EC50 [µM]
Cc1cccc(C)c1OCC(=O)N[C@@H](Cc1ccccc1)[C@@H](O)C[C@H](Cc1ccccc1)NC(=O)[C@H](C(C)C)N1CCCNC1=O [LOPINAVIR] | 0.263

System: Human immunodeficiency virus 1
Assay: Antiviral activity against HIV1 T20760 infected in human MT4 cells expressing LTR and EGFP assessed as inhibition of virus-induced cytopathic effect by fluorescence microscopic analysis
Type: functional, organism-based
Conditions: Human immunodeficiency virus 1, T20760, MT4

Structure (SMILES) | EC50 [µM]
Cc1cccc(C)c1OCC(=O)N[C@@H](Cc1ccccc1)[C@@H](O)C[C@H](Cc1ccccc1)NC(=O)[C@H](C(C)C)N1CCCNC1=O [LOPINAVIR] | 0.112
